According to patent publication US4474961A, “1,10[8,9-Benz]phenanthroline” (Development Finance Corporation of New Zealand, priority 1982, dated 1984):

How the values were obtained:
[1] = tested on: murine L1210 leukaemia cells; assay: L1210 in vitro, growth of cultured murine leukaemia cells; format: cell-based; settings: Mus musculus, concentration that reduces counted number of leukaemia cells by 50% over 70 hours, read-out: ID50 (the source's name)
From the text: L1210 in vitro--The culture methods used are described in detail elsewhere (B. C. Baguley and R. Nash, Europ.J.Cancer, 17, 671-679 (1981). Acceptable reproducibility of data depends critically upon the maintenance of optimal culture conditions. L1210 cells were initially obtained from Dr. I. Wodinsky, Arthur D. Little Inc., Boston, U.S.A., under the auspices of the National Cancer Institute.
ID50 --the nanomolar concentration of drug which when added to cultures of murine L1210 leukaemia cells over a period of 70 hours, reduces the resultant counted number of leukaemia cells by 50% (B. C. Baguley and R. Nash, Europ.J.Cancer 17, 671-679 (1981).

[2] = tested on: P388 leukaemia; assay: P388 in vivo, life span of mice bearing intraperitoneal P388 leukaemia; design: species or system mice (F1 hybrid, DBA-2 male×C57 B1 female); settings: for ILS (percentage increase in life span): at optimal dose, days 1, 5 and 9, controls survive 11 days on average, >20% statistically significant; for OD (O.D., optimal drug dose): solution in 0.1 ml of 30% v/v ethyl alcohol in water on days 1, 5 and 9, soluble acid addition salt
From the text: These have been shown by studies at the National Cancer Institute, U.S.A. to be useful for detecting agents with antitumor activity against clinical cancer (A. Goldin, J. M. Venditti, J. S. MacDonald, F. M. Mugia, J. E. Henney and V. T. De Vita, Europ.J. Cancer 17, 129-142, (1981). The abbreviations given in Table II are:
P388 in vivo--Tumour P388 cells were obtained as frozen stocks from Mason Research Inc., U.S.A. and passaged intraperitoneally according to standard methods (Cancer Chemother. Rep. 3, Part 3, page 9, 1972) in DBA-2 mice of either sex. Groups of six F1 hybrid mice (DBA-2 male×C57 B1 female, g weight 20±1 g) were injected intraperitoneally with 10^6 cells on day 0.
O.D.--optimal drug dose, in milligrams per kilogram, administered as a solution in 0.1 ml of 30% v/v ethyl alcohol in water on days 1, 5 and 9 after tumour inoculation. The drug is administered as a soluble acid addition salt.
ILS--percentage increase in life span of treated animals over that of groups of control animals injected with tumour alone. The average survival of control mice was 11 days. Values of ILS greater than 20% are considered statistically significant.

[3] = tested on: tumour; settings: earlier work, literature; cited from earlier work

For `COC(=O)Nc1ccc(Nc2c3ccccc3nc3c2ccc2cccnc23)c(OC)c1` [Compound 3], which IC50 [1] is on record?
Its IC50 is 46 nM.

And the Active [2]?
The Active was “Yes”.

What about the “ILS (percentage increase in life span)” value [2] of the same compound?
The value was 95%.

What about the “OD (O.D., optimal drug dose)” value [2] of the same compound?
The value was 45 milligrams per kilogram.

Which IC50 [1] does the source give for `CS(=O)(=O)Nc1ccc(Nc2c3ccccc3nc3c2ccc2cccnc23)cc1` [Compound 2] here?
Its IC50 is 58 nM.

What about the Active [2] of the same compound?
Its Active is “Yes”.

And the “ILS (percentage increase in life span)” value [2]?
Its value is 30%.

And the “OD (O.D., optimal drug dose)” value [2]?
Its value is 150 milligrams per kilogram.

Which IC50 [1] does the source give for `COc1cc(NS(C)(=O)=O)ccc1Nc1c2ccccc2nc2c1ccc1cccnc12` [Compound 1] here?
The IC50 was 26 nM.

And the Active [2]?
The Active was “Yes”.

And the “ILS (percentage increase in life span)” value [2]?
Its value is 109%.

What about the “OD (O.D., optimal drug dose)” value [2] of the same compound?
The value was 13.3 milligrams per kilogram.

Which IC50 [1] does the source give for `COC(=O)Nc1ccc(Nc2c3ccccc3nc3c2ccc2cccnc23)cc1` [Compound 4] here?
The IC50 was 18 nM.

And the Active [2]?
Its Active is “Yes”.

And the “ILS (percentage increase in life span)” value [2]?
Its value is 64%.

And the “OD (O.D., optimal drug dose)” value [2]?
The value was 30 milligrams per kilogram.

Which antitumour effect [3] does the source give for `CS(=O)(=O)Nc1ccc(Nc2c3ccccc3nc3ccccc23)cc1` [AMSA, 4'-(9-acridinylamino) methanesulphonanilide] here?
Its antitumour effect is “marked antitumour effect”.

Which results are given for `COP(=O)(Nc1ccc(Nc2c3ccccc3nc3c2ccc2cccnc23)cc1)OC` [Compound 5]?
IC50 [1]: 31 nM; Active [2]: Yes; ILS (percentage increase in life span) [2]: 64%; OD (O.D., optimal drug dose) [2]: 45 milligrams per kilogram
